In patent publication US8835644B2, “Broad spectrum benzothiophene-nitrothiazolide and other antimicrobials” (University of Virginia Patent Foundation, priority 2009, dated 2014):
Converted amounts (≈) assume the structure as drawn. Counter-ions that a name gives are not always drawn. Like-named read-outs stand apart in the source and are kept apart here.

Experiments:
H. pylori = test: MIC testing by broth dilution, H. pylori; format: cell-based, Helicobacter pylori; details: 24 h, read-out: MIC (μM) H. pylori
Method: (§1) A standard broth dilution protocol was used in 96 well microplates containing a standard dilution of the microorganism to be tested in 100 microliters of the appropriate medium. Appropriate medium: E. coli, LB medium; Staphylococcus strains, Trypticase Soy; and for H. pylori and C. jejuni, Brain Heart Infusion. The compounds to be tested were set at 32 μg/ml in 200 microliters in well one and then serially diluted to provide a range from 32 to 0.06. The wells were scored visually at 24 h. The well where there was no growth was recorded as the MIC. Clostridium difficile was tested by agar diffusion and disk diffusion (Kirby Bower) methods under anaerobic conditions on Wilkins Chalgrin agar. In these assays, zone of inhibited growth was measured and compared by relative ratio to the zone recorded for NTZ.
(§2) Representative compounds of the invention were tested in a series of assays against a series of organisms as described above. […] The organisms tested include, C. difficile, H. pylori, C. jejuni, MRSA, S. epidermidis, and E. coli. S. epidermidis and E. coli were tested in the plank and biofilm assay. A disk diffusion assay was also used for C. difficile. Direct PFOR enzyme assays were also performed. All analogues and derivatives were not tested on every organism in every type of assay (the “-” in each table means that it was not tested).

C. jejuni = test: MIC testing by broth dilution, C. jejuni; format: cell-based, Campylobacter jejuni; details: 24 h, read-out: MIC (μM) C. jejuni
Method: as §1, §2

MRSA = test: MIC testing by broth dilution, MRSA; format: cell-based, Staphylococcus aureus; details: 24 h, read-out: MIC (μM) MRSA
Method: as §1, §2

S. epidermidis = test: MIC testing by broth dilution, S. epidermidis plank; format: cell-based, Staphylococcus epidermidis; details: 24 h, read-out: MIC (μM) S. epidermidis Plank
Method: as §1, §2

E. coli = test: MIC testing by broth dilution, E. coli plank; format: cell-based, Escherichia coli; details: 24 h, read-out: MIC (μM) E. coli Plank
Method: as §1, §2

C. difficile = test: Disk diffusion (Kirby Bower), C. difficile; format: cell-based, Clostridium difficile; details: zone of inhibited growth as relative ratio to the zone for NTZ
Method: as §1, §2

[1] = broth dilution, Brain Heart Infusion

Row | Compound | MIC (H. pylori; [1]) [µM] | MIC (C. jejuni; [1]) [µM] | MIC (MRSA; broth dilution, Trypticase Soy) [µM] | MIC (S. epidermidis; broth dilution, Trypticase Soy) [µM] | MIC (E. coli; broth dilution, LB medium) [µM] | MIC (H. pylori; Helicobacter pylori) [µM] | MIC (C. jejuni; Campylobacter jejuni) [µM] | MIC (MRSA; Staphylococcus aureus, MRSA) [µM] | MIC (S. epidermidis; Staphylococcus epidermidis) [µM] | MIC (E. coli; Escherichia coli) [µM] | Disk Diffusion (%) C. difficile (C. difficile) [%]
1 | CC(=O)Nc1ccccc1C(=O)Nc1ncc([N+](=O)[O-])s1 [VPC162046b] | 6.9 (≈ 2.11 µg/mL) | 41.6 (≈ 12.7 µg/mL) | 55.5 (≈ 17 µg/mL) | 111.0 (≈ 34 µg/mL) | 111.0 (≈ 34 µg/mL) |  |  |  |  |  | 
2 | CC(C)(C)OC(=O)Nc1ccccc1C(=O)Nc1ncc([N+](=O)[O-])s1 [VPC162047, tert-Butyl 2-(5-nitrothiazol-2-ylcarbamoyl)phenylcarbamate] |  |  |  |  |  | 0.3 (≈ 0.109 µg/mL) | 27.4 (≈ 9.98 µg/mL) | 5.5 (≈ 2 µg/mL) | 5.5 (≈ 2 µg/mL) | 87.8 (≈ 32 µg/mL) | 83
3 | O=C(NCCOc1ccccc1C(=O)Nc1ncc([N+](=O)[O-])s1)Nc1ccccc1 [VPC162048] | 0.4 (≈ 0.171 µg/mL) | 74.9 (≈ 32 µg/mL) | 74.9 (≈ 32 µg/mL) | 74.9 (≈ 32 µg/mL) | 74.9 (≈ 32 µg/mL) |  |  |  |  |  | 31
4 | CN(C)CCOc1ccccc1C(=O)Nc1ncc([N+](=O)[O-])s1 [VPC162052] | 1.5 (≈ 0.505 µg/mL) | 17.8 (≈ 5.99 µg/mL) | 95.1 (≈ 32 µg/mL) | 95.1 (≈ 32 µg/mL) | 95.1 (≈ 32 µg/mL) |  |  |  |  |  | 
5 | Nc1ccccc1C(=O)Nc1ncc([N+](=O)[O-])s1 [VPC162055] | 2.4 (≈ 0.634 µg/mL) | 11.4 (≈ 3.01 µg/mL) | 121.1 (≈ 32 µg/mL) | 90.8 (≈ 24 µg/mL) | 45.4 (≈ 12 µg/mL) |  |  |  |  |  | 83
6 | O=C(COc1ccccc1C(=O)Nc1ncc([N+](=O)[O-])s1)Nc1ccccc1 [VPC162056] | 0.9 (≈ 0.359 µg/mL) | 80.3 (≈ 32 µg/mL) | 80.3 (≈ 32 µg/mL) | 80.3 (≈ 32 µg/mL) | 80.3 (≈ 32 µg/mL) |  |  |  |  |  | 
7 | CC(C)(C)OC(=O)N1CCC(C(=O)NCCOc2ccccc2C(=O)Nc2ncc([N+](=O)[O-])s2)CC1 [VPC162059] | 0.7 (≈ 0.364 µg/mL) | 61.6 (≈ 32 µg/mL) | 61.6 (≈ 32 µg/mL) | 61.6 (≈ 32 µg/mL) | 61.6 (≈ 32 µg/mL) |  |  |  |  |  | 38
8 | CCCCCCNC(=O)COc1ccccc1C(=O)Nc1ncc([N+](=O)[O-])s1 [VPC162064] | 1.9 (≈ 0.772 µg/mL) | 78.7 (≈ 32 µg/mL) | 78.7 (≈ 32 µg/mL) | 4.9 (≈ 1.99 µg/mL) | 78.7 (≈ 32 µg/mL) |  |  |  |  |  | 
9 | O=C(COc1ccccc1C(=O)Nc1ncc([N+](=O)[O-])s1)NCCN1CCOCC1 [VPC162065] | 2.3 (≈ 1 µg/mL) | 36.7 (≈ 16 µg/mL) | 73.5 (≈ 32 µg/mL) | 27.6 (≈ 12 µg/mL) | 73.5 (≈ 32 µg/mL) |  |  |  |  |  | 
10 | Cl.O=C(Nc1ncc([N+](=O)[O-])s1)c1ccccc1OCCNC(=O)C1CCNCC1 [VPC162068] | 52.6 | 35.1 | 70.2 | 70.2 | 70.2 |  |  |  |  |  | 
11 | NCCOC(=O)COc1ccccc1C(=O)Nc1ncc([N+](=O)[O-])s1 [VPC162082, 2-Aminoethyl 2-(2-(5-nitrothiazol-2-ylcarbamoyl)phenoxy)acetate hydrochloride] |  |  |  |  |  | 6.2 | 29.8 | 79.4 | 79.4 | 79.4 | 
12 | Cl.O=C(COc1ccccc1C(=O)Nc1ncc([N+](=O)[O-])s1)OC1CNC1 [VPC162083] | 24.1 | 77.1 | 77.1 | 77.1 | 77.1 |  |  |  |  |  | 
13 | Cl.NCCCCOc1ccccc1C(=O)Nc1ncc([N+](=O)[O-])s1 [VPC162096HCl] | 2.0 | 5.4 | 85.8 | 42.9 | 85.8 |  |  |  |  |  | 111
